Data published in publication PMC5478271, “Chemical structure-guided design of dynapyrazoles, cell-permeable dynein inhibitors with a unique mode of action” (eLife, 2017).

How the values were obtained:
[1] = system: IMCD3 cells stably expressing mNeonGreen-IFT88; test: Intraflagellar transport assay (mNeonGreen-IFT88 particles in primary cilia); format: cell-based, murine
Description: To quantitatively assess the effect of dynapyrazole-A treatment on intraflagellar transport, we analyzed time-lapse images of cilia using KymographDirect, an automated analysis algorithm that extracts particle velocities from kymographs ([Mangeol et al., 2016]). […] Under control conditions (0.3% DMSO, Figure 4B), anterograde particles moved with a speed of 694 ± 117 nm/s (Figure 4D and F, mean ± S.D., 429 particles, 38 cilia) and retrograde particles moved at 421 ± 156 nm/s (Figure 4D and F, 244 particles, 38 cilia), consistent with previous studies ([Ye et al., 2013]). […] After 10 min of treatment, reductions in velocities were similar to those at the 5 min time point (Figure 4—figure supplement 1). Treatment of cilia with a higher dynapyrazole-A concentration (10 µM) slowed both retrograde- and anterograde-directed motion (Figure 4—figure supplement 2). […] We note that dynapyrazole-A, at concentrations close to the IC50 for inhibiting microtubule gliding in vitro, alters intraflagellar transport in a manner similar to what has been observed following dynein 2 loss-of-function in Chlamydomonas ([Engel et al., 2012]).
Murine inner medullary collecting duct (IMCD3) cells stably expressing mNeonGreen-IFT88 were maintained in DMEM/F12 supplemented with 10% FBS. Cells were typically passaged fewer than 10 times following thawing of frozen stocks. Cells were described previously ([Ye et al., 2013]). 6 × 10^5 cells were seeded onto 22-mm coverslips in a six well plate and incubated for 24 hr at 37°C. The media was then replaced with DMEM/F12 +0.2% FBS and cells were incubated 24 hr to promote cilium formation. Immediately prior to imaging, media was replaced with phenol red-free media (Leibovitz's L-15 + 0.2% FBS) containing either carrier solvent control (0.3% DMSO) or compound. IFT88 transport was observed using a TE2000-E spinning disk confocal microscope (Nikon PlanApo 100x/1.45 objective lens) fitted with a Photometrics Cascade II (EMCCD 512) camera and imaged at a frame rate of 2 frames/s. Kymographs were generated in FIJI using KymographClear and the velocities of mNeonGreen-IFT88 foci movement were quantified by KymographDirect ([Mangeol et al., 2016]). The algorithm used to identify IFT88 foci could identify particles with velocitities ≥ 25nm/s as moving particles.
For washout experiments, cells were exposed to a 5-min compound treatment as described above. Cells were then washed twice with 5 mL of L-15 supplemented with 10% FBSand 0.3% DMSO. A 5-min incubation followed each wash. Imaging was performed as described above immediately after the second 5-min wash and incubation step had been completed. For washout experiments shown in Figure 4—figure supplement 3, wash steps were performed with either L-15 supplemented with 10% FBS or L-15 supplemented with 0.2% FBS. Following washout of compound, cells were incubated at 37° for 60-min and then imaged.
Statistical analysis of intraflagellar transport frequencies: Run frequencies output directly from KymographDirect were tabulated across all cilia imaged in a given condition (see Figure 4—figure supplement 2). For each of two experimental conditions (5 µM 8, 10 µM 8) and the respective controls, an un-paired T-test was performed for the difference of means control and compound treatment. This analysis was performed for each direction of motion.

CAD cells = test: Lysosome motility assay in CAD cell neurites (LysoTracker); format: cell-based, murine; settings: for Percentage of retrograde-directed lysosomes moving slower than 25 nm/s: 60 min; for Average track length of moving particles (lysosomes): 1 min imaging, control 32 ± 11 µm
Description: This bidirectional transport of lysosomes requires kinesins and dynein 1 and can be observed by imaging live cells stained with the LysoTracker dye ([Vale, 2003]; [Pu et al., 2016]). A coupling between anterograde and retrograde motion has been described for membrane-bound organelles, with disruption of dynein-driven motion blocking bi-directional organelle motility ([Barlan et al., 2013]). We imaged control solvent (0.1% DMSO) treated cells and observed bidirectional motion of LysoTracker-labelled puncta (Figure 5E,H,K, Video 5). Overlays of successive images from a time-lapse series, color-coded for displacement, reveal organelle displacements (Figure 5H–J). […] Treatment with dynapyrazole-A suppressed bidirectional motion. In particular, the percentage of retrograde-directed lysosomes moving slower than 25 nm/s increased to ~47% (3.5µM) and ~59% (5µM) while the proportion of lysosomes moving at speeds > 250 nm/s decreased to below 10% (Figure 5N). We observed equivalent effects of dynapyrazole-A on anterograde motion velocities (kymographs in Figure 5K,L and M). In control cells, lysosomes with measureable displacements had trajectories that averaged 32 ± 11 µm (Figure 5O). Dynapyrazole-A (3.5 µM, Figure 5I and L) reduced the average track length of moving particles to 15.7 ± 4.7 µm, which can be seen as white punctae that result from the overlay of multiple color-coded frames without particle translocation. A higher dose of dynapyrazole-A 5 µM) shortened the average track length of moving particles to 6.7 ± 2.7 µm (Figure 5J,M,O). […] Higher concentrations of dynapyrazole-A (15 µM) lowered intracellular ATP levels by ~70% at 3 hr (Figure 5—figure supplement 5).
CAD cells (catecholaminergic neuronal tumor cell line, RRID:CVCL_0199) were maintained in DMEM/F12 medium with 10% Fetal Bovine Serum ([Qi et al., 1997]). Cell line identity was confirmed by the morphological response to serum withdrawal (i.e. neurite formation), a previously-documented characteristic of this cell line ([Qi et al., 1997]). 24 hr before the experiment cells were plated on coverslips in serum-free medium to induce neurite formation. Cells were treated with inhibitors or control solvent (0.1% DMSO final in all experiments) for 60 min, then lysosomes were labeled with 0.1 µM (final concentration) LysoTracker Red DND-99 (Molecular Probes) and used for microscopy immediately after LysoTracker addition.
Microscopy was performed using a Nikon TE-2000 inverted microscope equipped with a LED X-Cite illuminator (Lumen Dynamics) at 37 degrees. Images were acquired with a Hamamatsu ORCA-Flash 4.0 camera driven by MetaMorph software at a rate of 1 frame per second for 1 min. Lysosome motility in neurites was analyzed using Diatrack software (http://www.diatrack.org/), particle velocities were measured from frame to frame and the total length of trajectories divided by the number of analyzed organelles was calculated for every experimental condition.

[2] = 5 µM 5 min, then washout 10 min in 10% FBS, 0.3% DMSO
[3] = 5 µM, then 0.2% FBS washout for 1 hr
[4] = 5 µM, then 10% FBS washout for 1 hr

N#Cc1c(C2(c3ccc(Cl)cc3)CC2)nn2c1[nH]c(=O)c1cc(I)ccc12 [Compound 8, 2-[1-(4-chlorophenyl)cyclopropyl]-7-iodo-5-oxo-4H-pyrazolo[1,5-a]quinazoline-3-carbonitrile]
Fa, anterograde frequency after washout [1, 2]: 14.2 ± 6 counts/minute
Fr, retrograde frequency after washout [1, 2]: 9.6 ± 7 counts/minute
Va, anterograde velocity after washout [1, 2]: 697 ± 149 nm/s
Vr, retrograde velocity after washout [1, 2]: 467 ± 136 nm/s
Reduction of anterograde particle velocities ([1]; 5 µM, 5 min, versus DMSO control): ~ 18%
Fr, retrograde frequency ([1]; 5 µM, 5 min, DMSO control 6.5 ± 4): 4.1 ± 3 counts/minute
Fa, anterograde frequency ([1]; 5 µM, 5 min, DMSO control 11.3 ± 3): 8.5 ± 5 counts/minute
Vr, retrograde velocity ([1]; 5 µM, 5 min, DMSO control 421 ± 156): 156 ± 107 nm/s
Va, anterograde velocity ([1]; 5 µM, 5 min, DMSO control 694 ± 117): 566 ± 116 nm/s
Fr, retrograde frequency ([1]; 5 µM, 10 min, DMSO control 5.9 ± 3): 4.2 ± 3 counts/minute
Fa, anterograde frequency ([1]; 5 µM, 10 min, DMSO control 10.2 ± 3): 6.9 ± 4 counts/minute
Vr, retrograde velocity ([1]; 5 µM, 10 min, DMSO control 354 ± 134): 202 ± 180 nm/s
Va, anterograde velocity ([1]; 5 µM, 10 min, DMSO control 655 ± 124): 572 ± 121 nm/s
Fa, anterograde frequency after low-serum washout [1, 3]: 10.1 ± 4 counts/minute
Fr, retrograde frequency after low-serum washout [1, 3]: 5.2 ± 2 counts/minute
Va, anterograde velocity after low-serum washout [1, 3]: 620 ± 134 nm/s
Vr, retrograde velocity after low-serum washout [1, 3]: 219 ± 117 nm/s
Fa, anterograde frequency after high-serum washout [1, 4]: 18.8 ± 5 counts/minute
Fr, retrograde frequency after high-serum washout [1, 4]: 12.4 ± 6 counts/minute
Va, anterograde velocity after high-serum washout [1, 4]: 660 ± 112 nm/s
Vr, retrograde velocity after high-serum washout [1, 4]: 441 ± 156 nm/s
Fa, anterograde frequency ([1]; 10 µM): 6.8 ± 4 counts/minute
Fr, retrograde frequency ([1]; 10 µM): 4.0 ± 2 counts/minute
Va, anterograde velocity ([1]; 10 µM): 466 ± 183 nm/s
Vr, retrograde velocity ([1]; 10 µM): 121 ± 78 nm/s
Proportion of lysosomes moving at speeds > 250 nm/s (CAD cells; 3.5 µM and 5 µM, control ~20%): below 10%
Percentage of retrograde-directed lysosomes moving slower than 25 nm/s (CAD cells; 3.5 µM, control ~20%): ~ 47%
Average track length of moving particles (lysosomes) (CAD cells; 3.5 µM): 15.7 ± 4.7 µm
Percentage of retrograde-directed lysosomes moving slower than 25 nm/s (CAD cells; 5 µM, control ~20%): ~ 59%
Average track length of moving particles (lysosomes) (CAD cells; 5 µM): 6.7 ± 2.7 µm
